Measurements taken from Sander's compilation of Henry's law constants (doi:10.5985/jec.7.81).

Assay: Henry solubility constant Hcp at 298.15 K (mol/(m3 Pa))
Conditions: reference: Kondoh and Nakajima (1997)

Compound | Henry solubility constant Hcp
ClCC(Cl)(Cl)Cl [1,1,1,2-tetrachloroethane] | 0.0043
CC(Cl)(Cl)Cl [1,1,1-trichloroethane] | 0.00067
ClCC(Cl)Cl [1,1,2-trichloroethane] | 0.011
C=C(Cl)Cl [1,1-dichloroethene] | 0.00046
CC=C(Cl)Cl [1,1-dichloropropene] | 0.00054
Clc1cccc(Cl)c1Cl [1,2,3-trichlorobenzene] | 0.015
ClCC(Cl)CCl [1,2,3-trichloropropane] | 0.028
Cc1ccc(C)c(C)c1 [1,2,4-trimethylbenzene] | 0.0023
ClCC(Br)CBr (centres undefined) [1,2-dibromo-3-chloropropane] | 0.5
CC(Cl)CCl (centres undefined) [1,2-dichloropropane] | 0.0043
Cc1ccccc1C [1,2-dimethylbenzene] | 0.0019
Cc1cc(C)cc(C)c1 [1,3,5-trimethylbenzene] | 0.0015
Clc1cccc(Cl)c1 [1,3-dichlorobenzene] | 0.0038
ClCCCCl [1,3-dichloropropane] | 0.011
Cc1cccc(C)c1 [1,3-dimethylbenzene] | 0.0015
Clc1ccc(Cl)cc1 [1,4-dichlorobenzene] | 0.0047
Cc1ccc(C)cc1 [1,4-dimethylbenzene] | 0.0015
Cc1ccc(Cl)cc1 [1-chloro-4-methylbenzene] | 0.0029
Cc1ccc(C(C)C)cc1 [1-methyl-4-(1-methylethyl)-benzene] | 0.001
CC(C)(Cl)Cl [2,2-dichloropropane] | 0.00071
CC(C)(C)c1ccccc1 [(1,1-dimethylethyl)-benzene] | 0.00094
CCC(C)c1ccccc1 (centres undefined) [(1-methylpropyl)-benzene] | 0.00075

Compound | Henry solubility constant Hcp
CC(C)c1ccccc1 [(2-propyl)-benzene] | 0.001
c1ccccc1 [benzene] | 0.0018
Brc1ccccc1 [bromobenzene] | 0.0049
ClCBr [bromochloromethane] | 0.0078
ClC(Cl)Br [bromodichloromethane] | 0.0054
CCCCc1ccccc1 [butylbenzene] | 0.00091
Clc1ccccc1 [chlorobenzene] | 0.003
Cl/C=C\CCl [cis-1,3-dichloropropene] | 0.0063
ClC(Br)Br [dibromochloromethane] | 0.0098
BrCBr [dibromomethane] | 0.012
ClCCl [dichloromethane] | 0.0037
C=Cc1ccccc1 [ethenylbenzene] | 0.0038
CCc1ccccc1 [ethylbenzene] | 0.0014
ClC(Cl)=C(Cl)C(Cl)=C(Cl)Cl [hexachlorobutadiene] | 0.0007
Cc1ccccc1 [methylbenzene] | 0.0017
c1ccc2ccccc2c1 [naphthalene] | 0.017
CCCc1ccccc1 [propylbenzene] | 0.0011
ClC(Cl)=C(Cl)Cl [tetrachloroethene] | 0.00069
ClC(Cl)(Cl)Cl [tetrachloromethane] | 0.00044
Cl/C=C/CCl [trans-1,3-dichloropropene] | 0.01
BrC(Br)Br [tribromomethane] | 0.014
ClC=C(Cl)Cl [trichloroethene] | 0.0011
